Earlier results, collected in PubChem BioAssay AID1259409 (Chemical Carcinogenesis Research Information System (CCRIS), 2018).

Test system: rodent chemically induced tumor inhibition, incidence and multiplicity
Test: CCRIS tumor inhibitor studies
Conditions: Route [Inhibitor]: ORAL, Promoter: NONE USED
Excerpt: The CCRIS database contains chemical records with carcinogenicity, mutagenicity, tumor promotion, and tumor inhibition test results. It was developed by the National Cancer Institute (NCI). Data are derived from studies cited in primary journals, current awareness tools, NCI reports, and other sources. Test results have been reviewed by experts in carcinogenesis and mutagenesis.
CCRIS provides historical information from the years 1985 - 2011. It is no longer updated.
This is an archive assay for CCRIS tumor inhibitor studies.

For `CC(=O)Nc1ccc(O)cc1`, the “tumour outcome (control, treated, inhibition, significance)” value (Carcinogen: 4-(METHYLNITROSAMINO)-1-(3-PYRIDYL)-1-BUTANONE, 64091-91-4, Dose [Inhibitor]: 0, 1520 MMOL/KG BW/D IN DIET FOR DURATION OF STUDY BEGINNING 2 WK PRIOR TO CARCINOGEN TREATMENT (STUDY DURATION: 25 WK), Species: MOUSE, Strain/Sex: STRAIN-A/FEMALE, Target Tissue: Type of Lesion: LUNG:TUMOR, Dose [Carcinogen]: 2.2 MMOL/KG BW (TOTAL DOSE) ADMINISTERED IN DRINKING WATER FOR 7 WK) is given as 29/29 (100%), 25/25 (100%), 0%, not significant, the outcome (Carcinogen: N-ETHYL-N-HYDROXYETHYLNITROSAMINE, 13147-25-6, Dose [Inhibitor]: 1.3% IN DIET BEGINNING 1 WK AFTER LAST CARCINOGEN TREATMENT AND CONTINUING THROUGH DURATION OF STUDY (STUDY DURATION: 32, Species: RAT, Strain/Sex: F344/MALE, Target Tissue: Type of Lesion: KIDNEY: ADENOCARCINOMA, Dose [Carcinogen]: 0.1% IN DRINKING WATER FOR 2 WK AT BEGINNING OF STUDY) is given as 0/23 (0%), 1/23 (4%), not significant and the “tumour outcome (control, treated, inhibition, significance)” value (Carcinogen: N-ETHYL-N-HYDROXYETHYLNITROSAMINE, 13147-25-6, Dose [Inhibitor]: 1.3% IN DIET BEGINNING 1 WK AFTER LAST CARCINOGEN TREATMENT AND CONTINUING THROUGH DURATION OF STUDY (STUDY DURATION: 32, Species: RAT, Strain/Sex: F344/MALE, Target Tissue: Type of Lesion: KIDNEY: ADENOMA, Dose [Carcinogen]: 0.1% IN DRINKING WATER FOR 2 WK AT BEGINNING OF STUDY) is given as 5/23 (22%), 15/27 (56%), -154%, p<0.01. For the same compound, the “tumour outcome (control, treated, inhibition, significance)” value (Carcinogen: N-ETHYL-N-HYDROXYETHYLNITROSAMINE, 13147-25-6, Dose [Inhibitor]: 1.3% IN DIET BEGINNING 1 WK AFTER LAST CARCINOGEN TREATMENT AND CONTINUING THROUGH DURATION OF STUDY (STUDY DURATION: 32, Species: RAT, Strain/Sex: F344/MALE, Target Tissue: Type of Lesion: LIVER: HEPATOCELLULAR CARCINOMA, Dose [Carcinogen]: 0.1% IN DRINKING WATER FOR 2 WK AT BEGINNING OF STUDY) was 11/23 (48%), 3/27 (11%), 77%, p<0.05.
